Assay results as given in BigSolDB 2.1.

Details: in water

Structure (SMILES)	solubility (mole fraction) (285.15 K)	solubility (mole fraction) (292.15 K)	solubility (mole fraction) (298.15 K)	solubility (mole fraction) (306.15 K)	solubility (mole fraction) (313.15 K)	solubility (mole fraction) (320.15 K)	solubility (mole fraction) (327.15 K)	solubility (mole fraction) (333.15 K)	solubility (mole fraction) (339.15 K)	solubility (mole fraction) (344.15 K)	solubility (mole fraction) (348.15 K)
O=C(O)c1ccc([N+](=O)[O-])cc1C(=O)O	0.087	0.103	0.117	0.137	0.153	0.172	0.188	0.2	0.211	0.218	0.222
O=C(O)c1cccc([N+](=O)[O-])c1C(=O)O	0.000774	0.000984	0.00141	0.00189	0.0026	0.00352	0.00467	0.00581	0.00713	0.00847	0.00955
